Measured values reported in patent US7026475B2, “Positive allosteric AMPA receptor modulators (PAARM), processes for preparing them, and their use as pharmaceutical compositions” (Boehringer Ingelheim Pharma GmbH & Co. KG, priority 2001, dated 2006).

Tested on: AMPA receptors
Test: Electrophysiological measurement of intensification of the agonist-induced current on cells expressing functional AMPA receptors
Type: cell-based
Parameters: key: + good; + + very good
Settings: positive allosteric influence on agonist-induced current; tested at concentrations between 0.3 μmol and 300 μmol
Description: The effect of the compounds according to the invention as AMPA receptor modulators was measured electrophysiologically on cells which express functional AMPA receptors. Investigations were carried out to see whether the test substances have a positive allosteric influence on the agonist-induced current.
The test was carried out at concentrations of between 0.3 μmol and 300 μmol.

## CC1Nc2cccc3cccc(c23)S1(=O)=O (centres unmarked) [Example 1, 2-methyl-2,3-dihydronaphtho[1,8-de][1,3]thiazine-1,1-dioxide]
  Intensification of the Agonist-Induced Current, Activity: +

## CC1Nc2ccc(Cl)c3cccc(c23)S1(=O)=O (centres unmarked) [Example 2, 6-chloro-2-methyl-2,3-dihydronaphtho[1,8-de][1,3]thiazine-1,1-dioxide]
  Intensification of the Agonist-Induced Current, Activity: + +
